In patent US8716284B2, “Adamantyl diamide derivatives and uses of same” (H. Lundbeck A/S, priority 2008, dated 2014):

Experiments:
[1] = biological target: T1, rat metabotropic glutamate receptor 5 (mGluR5) (Rattus norvegicus, UniProt P31424); experiment: Calcium mobilization assay (FLIPR) for negative or positive allosteric activity, HEK 293 cells; assay type: cell-based; details: HEK293, negative allosteric modulation, inhibition of EC80 glutamate response; read-out: FLIPR maximum inhibition
T1 construct: expressed in transfected cells; host or cells: HEK 293
Procedure, shortened: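 HEK 293 cells stably expressing rat mGluR5, Fluo-4 loaded in HEPES-buffered HBSS pH 7.4 with 0.1% BSA and probenecid. Compound added with EC20 (potentiation) or EC80 (inhibition) glutamate; fluorescence read over 3 min at room temperature. Basal-subtracted maximum fluorescence change fitted to Hill equation.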

mGluR5 = mGluR5 (Homo sapiens, UniProt P41594); experiment: Radioligand binding assay, [3H]MPEP filtration binding to membrane homogenates; details: 5 nM [3H]MPEP; Ki calculated from IC50 by Cheng-Prusoff
Procedure: Binding assays were performed as described in [J. A. O'Brien et al. Mol. Pharmacol., 2003, 64, 731-740] with slight modifications. Briefly, after thawing, the membrane homogenates were resuspended in 50 mM Tris-HCl, 0.9% NaCl binding buffer at pH 7.4 to a final assay concentration of 40 μg protein/well for [^3H]methoxy-5-(2-pyridinylethynyl)pyridine ([^3H] MPEP) (American Radiolabeled Chemicals, Inc., St. Louis, Mo.) filtration binding. Incubations included 5 nM [^3H] MPEP, membranes and either buffer or varying concentrations of compound. Samples were incubated for 60 min at room temperature with shaking. Non-specific binding was defined with 10 μM MPEP. After incubation, samples were filtered over a GF/C filter (presoaked in 0.25% polyethyleneimine (PEI)) and then washed 4 times using a Tomtec® Harvester 96® Mach III cell harvester (Tomtec, Hamden, Conn.) with 0.5 mL ice-cold 50 mM Tris-HCl (pH 7.4).
IC50 values were derived from the inhibition curve and Ki values were calculated according to the Cheng and Prusoff equation of Ki=IC50/(1+[L]/Kd) described in [Y. Cheng and W. H. Prusoff Biochem. Pharmacol. 1973, 22, 3099-3108] where [L] is the concentration of radioligand and Kd is its dissociation constant at the receptor, derived from the saturation isotherm.

adult, male CD1 mice = experiment: Mouse marble burying (mMB) assay, anxiolytic effect; assay type: in vivo; details: SC injection, one-way ANOVA with Dunnett's test or t-test, read-out: Statistically significant Active Dose
Procedure: Examples 1, 2 and 58 were evaluated in vivo for anxiolytic effects using (1) mouse marble burying (mMB) methods similar to those described in [K. Njung'e, K. and S. L. Handley, Pharmacology, Biochemistry and Behavior, 1991, 38, 63-67] and (2) a modified Geller-Seifter conflict test described in [N. A. Moore et al. Behavioural Pharmacology. 1994, 5, 196-202].
More specifically for the mMB testing, adult, male CD1 mice (Charles River Laboratories (Kingston, N.Y.)), weighing 25 to 30 g, were used. All animals were group-housed in a standard colony room with a 12:12 light/dark cycle (lights on at 6:00 am) for at least one week prior to testing. Food and water were provided ad libitum. Animals were weighed, tail marked, and randomly assigned to treatment groups before testing.
For each test, sixty minutes after the injection of vehicle or test compound, or 30 min after injection of the positive control, buspirone, mice were individually placed into test cages containing 1.5 in of Aspen bedding (PWI brand) and two rows of 10 marbles (20 marbles per test cage total). Filter tops were used to cover each test cage. Thirty minutes later, mice were removed from test cages and returned to their home cages. The number of fully visible marbles (less than ⅔ covered with bedding) were counted and subtracted from 20 to arrive at the number of marbles buried. Twelve mice were tested per group.
Testing included multiple tests with each test performed to evaluate buspirone hydrochloride (BUS; Sigma Aldrich) (positive control) and/or a compound of the present invention. Each compound was dissolved immediately prior to testing in 20% beta-cyclodextrin (compound of the present invention) or distilled water (BUS) and administered at one or more doses (such as 3, 10, and/or 30 mg/kg) via subcutaneous (SC) or intraperitoneal (IP) injection at the indicated pretreatment times (i.e., 30, 60, or 120 min pretreatment). Doses were measured in mg drug (salt form) per kg body weight. Data was analyzed using one-way ANOVA with post-hoc Dunnett's test.

mGluR5, sequence (P41594 21-1212): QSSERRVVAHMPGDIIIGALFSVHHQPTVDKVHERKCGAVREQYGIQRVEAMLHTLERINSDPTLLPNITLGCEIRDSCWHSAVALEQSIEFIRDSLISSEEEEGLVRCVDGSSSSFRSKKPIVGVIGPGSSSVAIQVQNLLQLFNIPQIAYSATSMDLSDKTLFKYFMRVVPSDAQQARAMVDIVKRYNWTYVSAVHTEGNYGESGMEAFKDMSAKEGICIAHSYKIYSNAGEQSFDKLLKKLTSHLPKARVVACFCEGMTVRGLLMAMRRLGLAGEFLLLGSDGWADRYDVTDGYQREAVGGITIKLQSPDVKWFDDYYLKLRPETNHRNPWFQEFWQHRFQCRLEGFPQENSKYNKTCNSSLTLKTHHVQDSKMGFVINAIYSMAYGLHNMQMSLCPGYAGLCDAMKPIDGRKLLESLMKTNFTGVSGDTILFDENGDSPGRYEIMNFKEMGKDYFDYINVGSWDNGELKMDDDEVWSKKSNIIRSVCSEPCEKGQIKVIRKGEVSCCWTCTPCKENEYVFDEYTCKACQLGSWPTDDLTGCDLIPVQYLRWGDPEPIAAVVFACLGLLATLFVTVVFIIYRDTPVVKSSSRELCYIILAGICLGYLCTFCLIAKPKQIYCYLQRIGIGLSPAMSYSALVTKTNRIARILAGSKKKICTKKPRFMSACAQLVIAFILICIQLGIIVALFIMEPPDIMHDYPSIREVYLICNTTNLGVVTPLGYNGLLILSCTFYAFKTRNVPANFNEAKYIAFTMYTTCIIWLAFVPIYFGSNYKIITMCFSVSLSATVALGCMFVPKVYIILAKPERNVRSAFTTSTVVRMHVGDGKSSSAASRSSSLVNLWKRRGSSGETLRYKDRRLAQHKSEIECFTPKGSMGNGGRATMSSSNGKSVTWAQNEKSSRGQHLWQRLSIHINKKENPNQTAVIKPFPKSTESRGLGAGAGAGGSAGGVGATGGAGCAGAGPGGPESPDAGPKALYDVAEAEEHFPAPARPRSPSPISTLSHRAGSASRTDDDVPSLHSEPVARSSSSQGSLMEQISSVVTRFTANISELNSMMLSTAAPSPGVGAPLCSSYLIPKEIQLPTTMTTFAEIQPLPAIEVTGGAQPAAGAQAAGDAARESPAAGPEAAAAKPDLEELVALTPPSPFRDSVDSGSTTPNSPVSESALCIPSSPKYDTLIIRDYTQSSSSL
T1 sequence (P31424 21-1171 isoform P31424-2 limits assumed): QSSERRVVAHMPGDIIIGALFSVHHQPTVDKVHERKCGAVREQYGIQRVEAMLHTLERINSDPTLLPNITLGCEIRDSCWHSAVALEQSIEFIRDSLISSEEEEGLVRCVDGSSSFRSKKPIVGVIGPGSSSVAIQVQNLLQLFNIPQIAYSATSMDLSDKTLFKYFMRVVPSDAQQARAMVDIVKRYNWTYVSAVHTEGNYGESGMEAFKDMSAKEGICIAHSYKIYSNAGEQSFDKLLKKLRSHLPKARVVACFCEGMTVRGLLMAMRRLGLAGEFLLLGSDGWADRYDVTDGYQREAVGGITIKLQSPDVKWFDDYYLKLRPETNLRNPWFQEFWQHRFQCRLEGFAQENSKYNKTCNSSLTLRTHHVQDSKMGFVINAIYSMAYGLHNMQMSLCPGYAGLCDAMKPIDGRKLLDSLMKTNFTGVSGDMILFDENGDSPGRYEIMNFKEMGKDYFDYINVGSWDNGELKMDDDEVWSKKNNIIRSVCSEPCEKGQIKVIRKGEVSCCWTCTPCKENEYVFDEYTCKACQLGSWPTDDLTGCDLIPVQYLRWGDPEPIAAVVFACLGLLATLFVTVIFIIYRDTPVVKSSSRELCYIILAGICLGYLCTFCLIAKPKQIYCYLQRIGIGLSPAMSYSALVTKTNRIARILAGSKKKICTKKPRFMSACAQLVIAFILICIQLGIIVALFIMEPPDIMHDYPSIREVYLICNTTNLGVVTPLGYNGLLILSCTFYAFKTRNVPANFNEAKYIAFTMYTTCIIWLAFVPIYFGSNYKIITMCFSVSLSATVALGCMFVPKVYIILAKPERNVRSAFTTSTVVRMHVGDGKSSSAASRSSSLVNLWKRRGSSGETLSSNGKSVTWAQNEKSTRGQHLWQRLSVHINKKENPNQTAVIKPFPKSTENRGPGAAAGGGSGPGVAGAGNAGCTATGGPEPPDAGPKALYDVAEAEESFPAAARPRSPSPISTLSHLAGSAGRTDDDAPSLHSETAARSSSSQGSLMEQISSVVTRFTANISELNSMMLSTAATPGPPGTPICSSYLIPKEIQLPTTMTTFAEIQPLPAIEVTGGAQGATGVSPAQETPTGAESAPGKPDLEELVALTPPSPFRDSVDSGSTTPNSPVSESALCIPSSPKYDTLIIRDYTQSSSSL

Emax [1] | Ki (mGluR5) | Compound | minimal effective dose (adult, male CD1 mice)
70 to 99% | 6 to 700 nM | Cc1nccc(C(=O)NC23CC4CC(CC(NC(=O)c5ccccn5)(C4)C2)C3)n1 [Example 107, 2-Methyl-pyrimidine-4-carboxylic acid {3-[(pyridine-2-carbonyl)-amino]-adamantan-1-yl}-amide] | 10 mg/kg
63 to 99% | 6 to 700 nM | Cn1ccc2cc(C(=O)NC34CC5CC(C3)CC(NC(=O)c3ccccn3)(C5)C4)ccc21 [Example 69, 1-Methyl-1H-indole-5-carboxylic acid {3-[(pyridine-2-carbonyl)-amino]-adamantan-1-yl}-amide] | 
63 to 99% |  | O=C(NC12CC3CC(C1)CC(NC(=O)c1cnccn1)(C3)C2)c1ccc(F)cn1 [Example 185, Pyrazine-2-carboxylic acid {3-[(5-fluoro-pyridine-2-carbonyl)-amino]-adamantan-1-yl}-amide] | 30 mg/kg
63 to 99% |  | Cc1cnc(C(=O)NC23CC4CC(CC(NC(=O)c5ccccn5)(C4)C2)C3)cn1 [Example 63, 5-Methyl-pyrazine-2-carboxylic acid {3-[(pyridine-2-carbonyl)-amino]-adamantan-1-yl}-amide] | 30 mg/kg
70 to 99% | 6 to 700 nM | Cc1cccc(C(=O)NC23CC4CC(C2)CC(NC(=O)c2ccnc(C)n2)(C4)C3)n1 [Example 119, 2-Methyl-pyrimidine-4-carboxylic acid {3-[(6-methyl-pyridine-2-carbonyl)-amino]-adamantan-1-yl}-amide] | 10 mg/kg
63 to 99% | 6 to 700 nM | Cc1cncc(C(=O)NC23CC4CC(CC(NC(=O)c5cccc(F)c5)(C4)C2)C3)n1 [Example 96, 6-Methyl-pyrazine-2-carboxylic acid [3-(3-fluoro-benzoylamino)-adamantan-1-yl]-amide] | 
63 to 99% | 6 to 700 nM | Cn1ccc(C(=O)NC23CC4CC(C2)CC(NC(=O)c2nccs2)(C4)C3)n1 [Example 19, Thiazole-2-carboxylic acid {3-[(1-methyl-1H-pyrazole-3-carbonyl)-amino]-adamantan-1-yl}-amide] | 
63 to 99% | 6 to 700 nM | Cc1cccc(C(=O)NC23CC4CC(CC(NC(=O)c5cccc(-c6ncccn6)c5)(C4)C2)C3)n1 [Example 44, 6-Methyl-pyridine-2-carboxylic acid [3-(3-pyrimidin-2-yl-benzoylamino)-adamantan-1-yl]-amide] | 
70 to 99% |  | Cc1cncc(C(=O)NC23CC4CC(C2)CC(NC(=O)c2cncc(C)n2)(C4)C3)n1 [Example 145, N,N′-(1,3-adamantylene)bis(6-methyl-pyrazine-2-carboxamide)] | 30 mg/kg
 |  | Cc1nccc(C(=O)NC23CC4CC(CC(NC(=O)c5cccc(F)c5)(C4)C2)C3)n1 [Example 183, 2-Methyl-pyrimidine-4-carboxylic acid [3-(3-fluoro-benzoylamino)-adamantan-1-yl]-amide] | 10 mg/kg
63 to 99% | 6 to 700 nM | O=C(NC12CC3CC(C1)CC(NC(=O)c1ccncn1)(C3)C2)c1cccc(F)c1 [Example 93, Pyrimidine-4-carboxylic acid [3-(3-fluoro-benzoylamino)-adamantan-1-yl]-amide] | 30 mg/kg
63 to 99% | 6 to 700 nM | O=C(NC12CC3CC(C1)CC(NC(=O)c1ccccn1)(C3)C2)c1ccc2c(c1)CCN2 [Example 67, 2,3-Dihydro-1H-indole-5-carboxylic acid {3-[(pyridine-2-carbonyl)-amino]-adamantan-1-yl}-amide] | 
63 to 99% | 6 to 700 nM | O=C(NC12CC3CC(C1)CC(NC(=O)c1cnccn1)(C3)C2)c1cccc(F)c1 [Example 95, Pyrazine-2-carboxylic acid [3-(3-fluoro-benzoylamino)-adamantan-1-yl]-amide] | 
63 to 99% | 6 to 700 nM | Cc1cccc(C(=O)NC23CC4CC(CC(NC(=O)c5ccccn5)(C4)C2)C3)n1 [Example 72, 6-Methyl-pyridine-2-carboxylic acid {3-[(pyridine-2-carbonyl)-amino]-adamantan-1-yl}-amide] | 
63 to 99% | 6 to 700 nM | O=C(NC12CC3CC(C1)CC(NC(=O)c1nccs1)(C3)C2)c1ccccn1 [Example 74, Pyridine-2-carboxylic acid {3-[(thiazole-2-carbonyl)-amino]-adamantan-1-yl}-amide] | 
70 to 99% | 6 to 700 nM | Cc1cccc(C(=O)NC23CC4CC(CC(NC(=O)c5cscn5)(C4)C2)C3)n1 [Example 120, 6-Methyl-pyridine-2-carboxylic acid {3-[(thiazole-4-carbonyl)-amino]-adamantan-1-yl}-amide] | 
 |  | Cc1cncc(C(=O)NC23CC4CC(CC(NC(=O)c5ccc(F)cn5)(C4)C2)C3)n1 [Example 179, 6-Methyl-pyrazine-2-carboxylic acid {3-[(5-fluoro-pyridine-2-carbonyl)-amino]-adamantan-1-yl}-amide] | 10 mg/kg
63 to 99% | 6 to 700 nM | Cc1nc2ccc(C(=O)NC34CC5CC(C3)CC(NC(=O)c3ccccn3)(C5)C4)cc2o1 [Example 65, 2-Methyl-benzoxazole-6-carboxylic acid {3-[(pyridine-2-carbonyl)-amino]-adamantan-1-yl}-amide] | 
70 to 99% |  | COC(=O)c1cccc(C(=O)NC23CC4CC(CC(NC(=O)c5cccc(C)n5)(C4)C2)C3)n1 [Example 139, 6-{3-[(6-Methyl-pyridine-2-carbonyl)-amino]-adamantan-1-ylcarbamoyl}-pyridine-2-carboxylic acid methyl ester] | 
63 to 99% |  | Cc1ccnc(C(=O)NC23CC4CC(C2)CC(NC(=O)c2cccc(C)n2)(C4)C3)c1 [Example 28, 4-Methyl-pyridine-2-carboxylic acid {3-[(6-methyl-pyridine-2-carbonyl)-amino]-adamantan-1-yl}-amide] | 
70 to 99% |  | Cc1cccc(C(=O)NC23CC4CC(C2)CC(NC(=O)c2ccnc(C(F)(F)F)n2)(C4)C3)n1 [Example 140, 2-Trifluoromethyl-pyrimidine-4-carboxylic acid {3-[(6-methyl-pyridine-2-carbonyl)-amino]-adamantan-1-yl}-amide] | 
63 to 99% |  | Cc1ccc2nc(C(=O)NC34CC5CC(CC(NC(=O)c6ccccn6)(C5)C3)C4)cn2c1 [Example 90, 6-Methyl-imidazo[1,2-a]pyridine-2-carboxylic acid {3-[(pyridine-2-carbonyl)-amino]-adamantan-1-yl}-amide] | 
70 to 99% | 6 to 700 nM | O=C(NC12CC3CC(C1)CC(NC(=O)c1cnccn1)(C3)C2)c1ccccn1 [Example 105, Pyrazine-2-carboxylic acid {3-[(pyridine-2-carbonyl)-amino]-adamantan-1-yl}-amide] | 30 mg/kg

Compound | Emax [1] | Ki (mGluR5) | minimal effective dose (adult, male CD1 mice)
Cn1nc2ccccc2c1C(=O)NC12CC3CC(CC(NC(=O)c4ccccn4)(C3)C1)C2 [Example 79, 2-Methyl-2H-indazole-3-carboxylic acid {3-[(pyridine-2-carbonyl)-amino]-adamantan-1-yl}-amide] |  | 6 to 700 nM | 
